Assay results taken from the NIST ThermoML archive (doi:10.1016/j.fluid.2016.04.009).
Numbers after ± are expanded uncertainties.

Experiments:
[1] = refractive index (Na D-line) (dimensionless); conditions: 101.33 kPa, Liquid, Standard Abbe refractometry
[2] = for viscosity / mass density: 101.33 kPa; for viscosity / mass density / surface tension liquid-gas: Liquid; for viscosity: Concentric cylinders viscometry; for mass density: Vibrating tube method; for surface tension liquid-gas: Pendant drop shape
[3] = molar heat capacity at constant pressure; conditions: 298.15 K; 101.33 kPa; Liquid; Drop calorimetry
[4] = Molar enthalpy of transition or fusion; conditions: Crystal; DSC

CC(C)Cn1cc[n+](C)c1.O=S(=O)([N-]S(=O)(=O)C(F)(F)F)C(F)(F)F
Conditions	mass density [kg/m3]	refractive index	surface tension liquid-gas [mN/m]	viscosity [mPa·s]
[1], 288.15 K	–	1.4301 ± 0.00051	–	–
[1], 293.15 K	–	1.42854 ± 0.00051	–	–
[1], 298.15 K	–	1.42699 ± 0.00051	–	–
[1], 303.15 K	–	1.42543 ± 0.00051	–	–
[1], 308.15 K	–	1.42387 ± 0.00051	–	–
[1], 313.15 K	–	1.42232 ± 0.00051	–	–
[1], 318.15 K	–	1.42076 ± 0.00051	–	–
[2], 293.15 K	1442.1 ± 1.9	–	–	107.35 ± 1.9
[2], 298.15 K	1437.2 ± 1.9	–	–	81.44 ± 1.3
[2], 298.2 K	–	–	32.72 ± 0.75	–
[2], 303.15 K	1432.4 ± 1.9	–	–	63.36 ± 0.92
[2], 308.15 K	1427.7 ± 1.8	–	–	50.3 ± 0.69
[2], 308.2 K	–	–	32.26 ± 0.74	–
[2], 313.15 K	1422.9 ± 1.8	–	–	40.69 ± 0.55
[2], 318.15 K	1418.2 ± 1.8	–	–	33.4 ± 0.44
[2], 318.2 K	–	–	31.81 ± 0.74	–
[2], 323.15 K	1413.5 ± 1.8	–	–	27.81 ± 0.36
[2], 328.15 K	1408.8 ± 1.8	–	–	23.46 ± 0.3
[2], 328.2 K	–	–	31.35 ± 0.74	–
[2], 333.15 K	1404.2 ± 1.8	–	–	20.05 ± 0.25
[2], 338.15 K	1399.5 ± 1.8	–	–	17.24 ± 0.21
[2], 338.2 K	–	–	30.9 ± 0.73	–
[2], 343.15 K	1394.9 ± 1.8	–	–	14.99 ± 0.18
[2], 343.2 K	–	–	30.67 ± 0.73	–
[2], 348.15 K	1390.3 ± 1.7	–	–	13.14 ± 0.16
[2], 353.15 K	1385.7 ± 1.7	–	–	11.63 ± 0.14
[2], 358.15 K	1381.1 ± 1.7	–	–	10.31 ± 0.12
[2], 363.15 K	1376.6 ± 1.7	–	–	9.22 ± 0.11

Conditions	molar heat capacity at constant pressure [J/K/mol]
[3]	565.31 ± 13

CCCC[n+]1ccn(C)c1.O=S(=O)([N-]S(=O)(=O)C(F)(F)F)C(F)(F)F
[1]
Conditions	refractive index
288.15 K	1.43015 ± 0.001
293.15 K	1.4286 ± 0.001
298.15 K	1.42705 ± 0.001
303.15 K	1.4255 ± 0.001
308.15 K	1.42396 ± 0.001
313.15 K	1.42241 ± 0.001
318.15 K	1.42086 ± 0.001

Conditions	molar heat capacity at constant pressure [J/K/mol]
[3]	565.73 ± 13

CC(C)C[N+]1(C)CCCCC1.O=S(=O)([N-]S(=O)(=O)C(F)(F)F)C(F)(F)F
Conditions	mass density [kg/m3]	refractive index	surface tension liquid-gas [mN/m]	viscosity [mPa·s]
[1], 288.15 K	–	1.43387 ± 0.00051	–	–
[1], 293.15 K	–	1.43243 ± 0.00051	–	–
[1], 298.15 K	–	1.43099 ± 0.00051	–	–
[1], 303.15 K	–	1.42955 ± 0.00051	–	–
[1], 308.15 K	–	1.42812 ± 0.00051	–	–
[1], 313.15 K	–	1.42668 ± 0.00051	–	–
[1], 318.15 K	–	1.42524 ± 0.00051	–	–
[1], 323.15 K	–	1.42381 ± 0.00051	–	–
[1], 328.15 K	–	1.42237 ± 0.00051	–	–
[1], 333.15 K	–	1.42093 ± 0.00051	–	–
[2], 303.15 K	1392.9 ± 1.8	–	–	125.12 ± 2.3
[2], 308.15 K	1388.6 ± 1.7	–	–	96.4 ± 1.6
[2], 308.2 K	–	–	33.9 ± 0.76	–
[2], 313.15 K	1384.4 ± 1.7	–	–	76.03 ± 1.1
[2], 318.15 K	1380.1 ± 1.7	–	–	60.67 ± 0.83
[2], 318.2 K	–	–	33.45 ± 0.75	–
[2], 323.15 K	1375.9 ± 1.7	–	–	49.34 ± 0.66
[2], 328.15 K	1371.7 ± 1.7	–	–	40.71 ± 0.53
[2], 328.2 K	–	–	33.01 ± 0.75	–
[2], 333.15 K	1367.5 ± 1.7	–	–	34.11 ± 0.44
[2], 338.15 K	1363.3 ± 1.7	–	–	28.76 ± 0.36
[2], 338.2 K	–	–	32.56 ± 0.75	–
[2], 343.15 K	1359.1 ± 1.7	–	–	24.57 ± 0.3
[2], 343.2 K	–	–	32.34 ± 0.74	–
[2], 348.15 K	1355 ± 1.7	–	–	21.18 ± 0.26
[2], 353.15 K	1350.8 ± 1.6	–	–	18.47 ± 0.22
[2], 358.15 K	1346.7 ± 1.6	–	–	16.14 ± 0.19
[2], 363.15 K	1342.7 ± 1.6	–	–	14.25 ± 0.17

Conditions	Normal melting temperature [°C]
[2], Crystal, DTA	14.8 ± 1.1

Conditions	Molar enthalpy of transition or fusion [kJ/mol]
[4]	2.4 ± 1.4

Cc1ccc[n+](CC(C)C)c1.O=S(=O)([N-]S(=O)(=O)C(F)(F)F)C(F)(F)F
Conditions	mass density [kg/m3]	refractive index	surface tension liquid-gas [mN/m]	viscosity [mPa·s]
[1], 288.15 K	–	1.44902 ± 0.00051	–	–
[1], 293.15 K	–	1.44743 ± 0.00051	–	–
[1], 298.15 K	–	1.44585 ± 0.00051	–	–
[1], 303.15 K	–	1.44426 ± 0.00051	–	–
[1], 308.15 K	–	1.44268 ± 0.00051	–	–
[1], 313.15 K	–	1.44109 ± 0.00051	–	–
[1], 318.15 K	–	1.43951 ± 0.00051	–	–
[2], 293.15 K	1417.2 ± 1.8	–	–	135.42 ± 2.7
[2], 298.15 K	1412.6 ± 1.8	–	–	100.1 ± 1.8
[2], 298.2 K	–	–	33.45 ± 0.75	–
[2], 303.15 K	1408 ± 1.8	–	–	76.34 ± 1.2
[2], 308.15 K	1403.4 ± 1.8	–	–	59.56 ± 0.85
[2], 308.2 K	–	–	32.99 ± 0.75	–
[2], 313.15 K	1398.8 ± 1.8	–	–	47.48 ± 0.66
[2], 318.15 K	1394.2 ± 1.8	–	–	38.42 ± 0.52
[2], 318.2 K	–	–	32.54 ± 0.75	–
[2], 323.15 K	1389.7 ± 1.7	–	–	31.63 ± 0.41
[2], 328.15 K	1385.1 ± 1.7	–	–	26.4 ± 0.3
[2], 328.2 K	–	–	32.08 ± 0.74	–
[2], 333.15 K	1380.6 ± 1.7	–	–	22.36 ± 0.28
[2], 338.15 K	1376.1 ± 1.7	–	–	19.08 ± 0.24
[2], 338.2 K	–	–	31.63 ± 0.74	–
[2], 343.15 K	1371.6 ± 1.7	–	–	16.47 ± 0.2
[2], 343.2 K	–	–	31.4 ± 0.74	–
[2], 348.15 K	1367.2 ± 1.7	–	–	14.35 ± 0.17
[2], 353.15 K	1362.8 ± 1.7	–	–	12.63 ± 0.15
[2], 358.15 K	1358.4 ± 1.7	–	–	11.14 ± 0.13
[2], 363.15 K	1354.1 ± 1.7	–	–	9.93 ± 0.12

Conditions	molar heat capacity at constant pressure [J/K/mol]
[3]	578.87 ± 13
